Patent US11458138B2 (Novartis AG, priority 2017, dated 2022)

Legend:
[1] = target: Human LATS1 kinase domain protein (Homo sapiens (Human), UniProt O95835); test: LATS1 Biochemical Caliper Assay; conditions: 400 micromolar ATP
Description: Human LATS1 kinase domain protein was purchased from Carnabio (catalogue number 01-123), which harbors the catalytic domain of amino acids 589-1130, and was co-purified with human His-tagged MOBKL1A (NP_775-739). 5 microlitre of enzyme buffer, 100 nL of compounds and 5 microlitre of localising aid buffer were added into 384-well plates. The final assay reaction mix contains 100 mM HEPES, pH7.5, 0.1% BSA, 0.01% Triton X-100, 1 mM DTT, 10 mM MgCl2, 10 micromolar Sodium Orthovanadate, 10 micromolar Beta-Glycerophosphate, 400 micromolar ATP, 1% DMSO, 1.1 nM LATS1 enzyme (Carnabio, 01-123), 1 micromolar localising aid of FAM-[…]-COOH (SEQ ID NO: 24) (NanoSyn). The plates were incubated at 25° C. for 3 hours. 40 microlitre of stop buffer with 25 mM EDTA (NanoSyn) was added to each well to terminate the reaction. Localising aids and products were separated electrophoretically using the microfluidic-based Caliper Labchip 3000 Drug Discovery System (Caliper Life Sciences). Plates were read using blue laser excitation and green fluorescence detection and quantified by fluorescence intensity. […] According to this assay the LATS1 IC50 values in micromolar for the following compounds are: […]

[2] = target: Human LATS2 kinase domain protein (Homo sapiens (Human), UniProt Q9NRM7); test: LATS2 Biochemical Caliper Assay (Compound Examples 1-290); conditions: 400 micromolar ATP
Sequence of Human LATS2 kinase domain protein (Q9NRM7 553-1088): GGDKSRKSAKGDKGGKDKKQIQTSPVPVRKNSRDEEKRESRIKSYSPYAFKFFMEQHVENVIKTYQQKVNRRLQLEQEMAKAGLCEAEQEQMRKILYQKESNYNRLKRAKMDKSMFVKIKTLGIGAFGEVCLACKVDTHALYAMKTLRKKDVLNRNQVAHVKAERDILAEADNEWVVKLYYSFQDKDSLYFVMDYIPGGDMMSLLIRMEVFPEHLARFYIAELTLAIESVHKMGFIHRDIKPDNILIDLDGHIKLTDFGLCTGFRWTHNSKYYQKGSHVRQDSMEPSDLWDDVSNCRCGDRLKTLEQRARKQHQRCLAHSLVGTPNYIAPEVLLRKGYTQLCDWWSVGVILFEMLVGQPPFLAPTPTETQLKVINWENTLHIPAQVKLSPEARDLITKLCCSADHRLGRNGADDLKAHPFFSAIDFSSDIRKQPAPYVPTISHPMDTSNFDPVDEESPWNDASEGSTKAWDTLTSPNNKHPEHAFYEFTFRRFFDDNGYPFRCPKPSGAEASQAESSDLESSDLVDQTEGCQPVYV
Sequence of Human LATS2 kinase domain protein (Q7L9L4 whole entry partner, the tested form may be a part): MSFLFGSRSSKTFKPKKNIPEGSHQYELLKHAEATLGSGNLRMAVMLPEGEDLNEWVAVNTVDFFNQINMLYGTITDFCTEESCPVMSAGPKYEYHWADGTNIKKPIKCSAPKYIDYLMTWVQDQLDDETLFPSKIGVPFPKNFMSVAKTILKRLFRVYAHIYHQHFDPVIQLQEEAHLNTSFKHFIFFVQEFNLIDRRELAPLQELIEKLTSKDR
Description: Human LATS2 kinase domain protein was purchased from Carnabio (catalogue number 01-124), which harbors the catalytic domain of amino acids 553-1088, and was co-purified with human His-tagged MOBKL1A (NP_775-739). 5 microlitre of enzyme buffer, 100 nL of compounds and 5 microlitre of localising aid buffer were added into 384-well plates. […] The plates were incubated at 25° C. for 3 hours. 40 microlitre of stop buffer with 25 mM EDTA (NanoSyn) was added to each well to terminate the reaction. Localising aids and products were separated electrophoretically using the microfluidic-based Caliper Labchip 3000 Drug Discovery System (Caliper Life Sciences). Plates were read using blue laser excitation and green fluorescence detection and quantified by fluorescence intensity.

[3] = system: human corneal endothelial cells (CECs); test: Human corneal endothelial cell population expansion: endothelial cell density in vitro; assay type: cell-based; conditions: 10 micromolar compound, X-VIVO15 medium, 10 days
Description: (§1) Cells were cultured at 37° C. in 5% CO2.
(§2) For each compound, two sets of cultures were generated. A first set of cultures was fixed in 4% PFA for 20 minutes at room temperature after cells isolated from the cornea had attached to the cell culture dish (typically 24 h after cell plating). A second set of cultures was fixed in 4% PFA for 20 minutes at room temperature 10 days after the first one.
(§3) To measure cell density in all fixed cultures, the number of nuclei stained with Sytox Orange (ThermoFisher) were counted per surface area as follows: fixed cell cultures fixed were permeabilized in a solution of 0.3% Triton X-100 (Sigma-Aldrich). Cells were then labeled in a solution of 0.5 micromolar of Sytox Orange in PBS for 5 minutes at room temperature. Nuclei were counted under a Zeiss epifluorescence microscope. The expansion factor was then determined by calculating the ratio of the expanded population of cells to population of seeded cells.

[4] = system: human corneal endothelial cells (CECs); test: Human corneal endothelial cell population expansion: fold cell expansion; assay type: cell-based; conditions: 10 micromolar compound, X-VIVO15 medium, 10 days, ratio of expanded to seeded cells
Description: as §1, §2, §3

LATS1 = LATS1 (Homo sapiens (Human), UniProt O95835); test: LATS1 biochemical assay (Table 1A, Compound Examples 1-290; method in the earlier part)
Sequence of LATS1 (O95835 whole entry, looked up): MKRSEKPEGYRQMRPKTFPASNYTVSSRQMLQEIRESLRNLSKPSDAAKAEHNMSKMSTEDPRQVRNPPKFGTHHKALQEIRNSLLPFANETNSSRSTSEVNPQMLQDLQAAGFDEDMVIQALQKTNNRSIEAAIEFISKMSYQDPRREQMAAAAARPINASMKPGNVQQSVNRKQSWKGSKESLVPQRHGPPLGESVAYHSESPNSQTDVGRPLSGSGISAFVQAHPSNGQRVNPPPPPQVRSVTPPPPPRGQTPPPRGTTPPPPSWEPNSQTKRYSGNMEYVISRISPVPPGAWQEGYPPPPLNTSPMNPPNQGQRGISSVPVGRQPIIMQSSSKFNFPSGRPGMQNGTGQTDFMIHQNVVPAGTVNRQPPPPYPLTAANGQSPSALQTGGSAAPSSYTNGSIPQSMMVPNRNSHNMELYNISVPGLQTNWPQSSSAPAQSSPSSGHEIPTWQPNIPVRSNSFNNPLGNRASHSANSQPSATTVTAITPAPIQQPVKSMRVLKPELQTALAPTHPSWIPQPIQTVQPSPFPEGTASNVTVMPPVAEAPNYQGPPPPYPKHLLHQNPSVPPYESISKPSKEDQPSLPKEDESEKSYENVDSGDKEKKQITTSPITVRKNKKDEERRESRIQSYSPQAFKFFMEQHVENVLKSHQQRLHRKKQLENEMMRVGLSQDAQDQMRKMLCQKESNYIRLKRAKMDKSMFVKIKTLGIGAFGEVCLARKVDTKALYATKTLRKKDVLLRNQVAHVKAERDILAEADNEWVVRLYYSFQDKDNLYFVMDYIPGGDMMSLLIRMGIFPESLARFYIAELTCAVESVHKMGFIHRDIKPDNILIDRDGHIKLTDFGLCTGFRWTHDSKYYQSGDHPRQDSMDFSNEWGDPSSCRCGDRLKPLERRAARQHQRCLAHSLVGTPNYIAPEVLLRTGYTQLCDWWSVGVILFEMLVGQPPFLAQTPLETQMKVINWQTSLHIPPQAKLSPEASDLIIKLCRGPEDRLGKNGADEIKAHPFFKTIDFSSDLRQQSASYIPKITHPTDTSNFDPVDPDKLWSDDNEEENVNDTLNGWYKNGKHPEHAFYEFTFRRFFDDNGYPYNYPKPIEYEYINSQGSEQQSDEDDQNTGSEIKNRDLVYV
Sequence of LATS1 (Q7L9L4 whole entry partner, looked up): as the sequence (Q7L9L4 whole entry partner, the tested form may be a part) above

[5] = system: human limbal stem cells (LSCs); test: Human limbal stem cell population expansion: expansion factor; assay type: cell-based; conditions: 10 micromolar, XVIVO15 medium, two passages, ratio of expanded to seeded cells
Description: as §1
as §2, with “temperature” for “temperature 10 days”, “being cultured for two passages. Cells were passaged when they reached 90-100% confluence.” for “the first one.”
To evaluate cell expansion ratios, nuclei were counted using a Zeiss LSM 880 confocal microscope. The expansion factor was then determined by calculating the ratio of the expanded population of cells to population of seeded cells.

[6] = system: human limbal stem cells (LSCs); test: Human limbal stem cell population expansion: percentage of p63alpha-positive cells; assay type: cell-based; conditions: 10 micromolar, XVIVO15 medium
Description: as §1
as §2, with “temperature” for “temperature 10 days”, “being cultured for two passages. Cells were passaged when they reached 90-100% confluence.” for “the first one.”
In order to observe that the expanded cell population expressed p63alpha, this was measured by immunohistochemistry as follows. The fixed cell cultures were permeabilized and blocked in a blocking solution of 0.3% Triton X-100 (Sigma-Aldrich) and 3% donkey serum in PBS for 30 minutes. Cells were then labeled with primary antibody in the blocking solution for 12 hours at 4° C. Primary antibody used was p63alpha from Cell Signalling. Samples were washed in PBS three times and donkey-raised secondary antibody Alexa Fluor 488 (Molecular Probes) at 1:500 dilution were applied for 30 minutes at room temperature. Cell nuclei were then labeled in a solution of 0.5 micromolar of Sytox Orange (ThermoFisher) in PBS for 5 minutes at room temperature.
To evaluate the percentage of p63alpha-positive cells, the number of cells labeled by the anti-p63alpha antibody was counted and the total number of cells was determined by counting the number of nuclei stained by Sytox Orange. The proportion of p63alpha-positive cells was then determined by calculating the percentage of Sytox-orange-positive nuclei that also expressed p63alpha.

[7] = system: YAP nuclear translocation in HaCaT cells; test: YAP Translocation Assay (HaCaT Cells); assay type: cell-based, human; conditions: Homo sapiens, 24 hours
Procedure, shortened: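 HaCaT cells (20,000/well) in DMEM + 10% FBS were plated overnight at 37° C, then exposed to compound for 24 h at 37° C. Cells were fixed with PFA, permeabilized with 0.1% Triton/1.5% BSA and imaged by high-content imaging.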

Sequence of Human LATS1 kinase domain protein (O95835 whole entry, looked up, the tested form may be a part): as the sequence (O95835 whole entry, looked up) above
Sequence of Human LATS1 kinase domain protein (Q7L9L4 whole entry partner, looked up, the tested form may be a part): as the sequence (Q7L9L4 whole entry partner, the tested form may be a part) above

IC50 [1] [nM] | IC50 [2] [nM] | IC50 (LATS1) [nM] | Compound | Endothelial Cell density in vitro [3] [cells/mm^2] | Expansion factor (Fold Cell expansion) [4] | Expansion factor [5] | Percentage of p63a-positive cells [6] [%] | EC50 [7] [nM]
34 | 50 | 2 | CCCNc1nc(-c2ccncc2)nc2cnccc12 [Example 14, N-propyl-2-(pyridin-4-yl)pyrido[3,4-d]pyrimidin-4-amine] | 3271 | 337 | 1423 | 93 | 4250
12 | 21 | 1 | CC(C)(O)CC(C)(C)Nc1nc(-c2ccncc2)nc2cnccc12 [Example 49, 2,4-dimethyl-4-{[2-(pyridin-4-yl)pyrido[3,4-d]pyrimidin-4-yl]amino}pentan-2-ol] | 3873 | 426 | 2029 | 92 | 1170
22 | 30 | 2 | c1cc(-c2nc(NC3CCCC3)c3ccncc3n2)ccn1 [Example 65, N-cyclopentyl-2-(pyridin-4-yl)pyrido[3,4-d]pyrimidin-4-amine] | 1702 | 203 | 1048 | 87 | 1990
 | 4 | 1 | CC(C)(C)Nc1cc(-c2ccncc2)nc2cnccc12 [Example 261, N-(tert-butyl)-2-(pyridin-4-yl)-1,7-naphthyridin-4-amine] | 4308 | 461 | 1717 | 93 | 1220

Compound | IC50 [1] [nM] | IC50 [2] [nM] | IC50 (LATS1) [nM] | Endothelial Cell density in vitro [3] [cells/mm^2] | Expansion factor (Fold Cell expansion) [4] | Expansion factor [5] | Percentage of p63a-positive cells [6] [%] | EC50 [7] [nM]
Cc1n[nH]cc1-c1nc(NC2(C)CC2)c2ccncc2n1 [Example 133, 2-(3-methyl-1H-pyrazol-4-yl)-N-(1-methylcyclopropyl)pyrido[3,4-d]pyrimidin-4-amine] | 4 | 4 | 2 | 2028 | 273 | 1205 | 89 | 1670
